This note sets out measurements from patent US20020102262A1, “Collagen binding protein compositions and methods of use” (priority 1996, published 2002).

In experiment [1] the test system is S. aureus. The experiment can be described thus: Inhibition of binding of 125I-labeled type II Col to S. aureus cells. Further details: species or system Staphylococcus aureus. As for the experimental part: Purified αCBD(151-297) IgG inhibited the binding of S. aureus to ^125I-labeled Col in a dose-dependent manner.
(§1) To further investigate the interaction between peptide CBD4 and αCBD(151-297) IgG and its affect on Col binding, a fixed concentration of the antibody was incubated with an increasing amount of peptide CBD4. […] Thus, a relatively small reduction in inhibition could be easily detected.
Peptide CBD7 which reacted strongly with αCBD(151-297) IgG in the ELISA assay was also tested. […] Five μM CBD4 inhibited binding by over 50%.
To identify residues within CBD4 necessary for Col binding synthesized several smaller overlapping peptides were synthesized. A series of peptides that contained a 2 amino-terminal residues and one peptide that contained a 2 amino acid deletion at the carboxyl terminus were made. The peptides (10 μM) were assayed for their ability to inhibit the binding of ^1251I-labeled Col to S. aureus. Peptide CBD4 inhibited Col binding by 76%, whereas all peptides containing amino-terminal truncations had little activity at the concentration tested.

For experiment [2], the system named is αCBD(151-297) IgG. The experiment in a line: ELISA reactivity of αCBD(151-297) IgG with eight 25-amino-acid synthetic CBD peptides. Type of experiment: binding, rabbit. As to conditions: 25-amino-acid synthetic peptides as targets. As for the experimental part: Rabbits were immunized with […] as described. Sera were also collected prior to immunization and tested for reactivity to CBD(151-297). The reactivity of the antiserum with different segments of CBD(151-297) was tested in an ELISA using a series of eight 25-amino-acid long synthetic peptides with partially overlapping sequences as targets. Purified IgG reacted strongly with peptides 2, 3, 5, 6, and 7 and weakly with peptides 1, 4, and 8. When preimmune IgG was tested with the CBD peptides, little reaction could be detected. The relative immunological reactivity of the different peptides correlated closely with their antigenic index using the algorithm of Jameson and Wolf (1988).
(In an ELISA, binding on a coated surface is turned into a signal by an enzyme label.)

Experiment [3] deals with αCBD(151-297) IgG. The experiment can be described thus: Neutralization of the inhibitory activity of αCBD(151-297) IgG by synthetic CBD peptides. It counts as binding, rabbit. As for the experimental part: The different synthetic CBD peptides described above and shown to react with the αCBD(151-297) IgG were assayed for their potential to neutralize the inhibitory activity of the antibody. The αCBD(151-297) IgG (12 μg) was preincubated with a single dose (100 μg) of each peptide in step one. The S. aureus cells were then added and the preincubation continued. Finally, the ^125I-labeled type II Col was added. Peptide CBD4 neutralized 68% of αCBD(151-297) IgG inhibitory activity, while the other peptides tested had little or no effect. […] Although other peptide sequences were more immunogenic than CBD4, the antibodies recognizing the corresponding epitopes were not inhibitory.
as §1

Experiment [4] concerns the target type II Col (collagen type II). The experiment can be described thus: BIAcore, immobilized type II Col; Scatchard analysis or Equation 1. A general note: SPR reads the build-up and loss of mass on a sensor chip optically.
Experiment [5] has as its target type II Col (collagen type II). The experiment in a line: BIAcore, immobilized type II Col; three-component dissociation, the two fastest components.
Experiment [6] concerns the target type II Col (collagen type II). The experiment in a line: BIAcore, immobilized type II Col; three-component dissociation, the slowest component.
The target in experiment [7] is M55 (Staphylococcus aureus, UniProt Q53654). The note with it: animals immunized with M55 and infected with a sub-lethal dose S. aureus.
Sequence of M55 (Q53654 18-529, looked up, natural form): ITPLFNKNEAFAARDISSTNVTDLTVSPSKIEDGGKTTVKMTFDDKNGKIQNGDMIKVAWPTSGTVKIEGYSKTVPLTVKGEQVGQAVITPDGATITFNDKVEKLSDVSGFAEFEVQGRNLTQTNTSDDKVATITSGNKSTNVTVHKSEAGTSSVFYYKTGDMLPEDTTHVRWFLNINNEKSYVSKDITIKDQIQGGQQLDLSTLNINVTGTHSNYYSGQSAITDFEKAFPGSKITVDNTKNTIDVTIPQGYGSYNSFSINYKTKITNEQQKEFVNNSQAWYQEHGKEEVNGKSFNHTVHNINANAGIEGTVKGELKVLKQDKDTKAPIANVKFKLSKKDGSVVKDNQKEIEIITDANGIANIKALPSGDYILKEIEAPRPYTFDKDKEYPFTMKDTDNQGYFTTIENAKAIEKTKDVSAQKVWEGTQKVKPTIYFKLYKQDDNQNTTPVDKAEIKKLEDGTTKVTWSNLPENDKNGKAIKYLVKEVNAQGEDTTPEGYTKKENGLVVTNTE
Method: Serum level of specific antibodies against the collagen adhesion peptide M55 was measured by an enzyme-linked immunosorbent assay (ELISA). 96-well microplates (Nunc) were coated overnight at 4° C. with 2 μg/ml of M55 peptide. Blocking was done with 0.5% ovalbumin (Sigma Chemical Co., St. Louis, MO) dissolved in 0.05 M Tris (pH 7.7). Sera, biotinylated antibodies, the ExtrAvidin-peroxidase (Sigma) were all diluted in 0.05 M Tris (pH7.4)-0.015 M NaCl. The plates were incubated overnight at 4° C. with sera, washed and incubated stepwise with biotinylated goat anti-mouse IgG antibody (Jackson Immuno Research Laboratories, Inc., West Grove, PA), ExtrAvidin-peroxidase (0.5 μg/ml; Sigma) and ABTS substrate. The A405 was measured in a Titertec Multiscan photometer (Flow Laboratories, McLean, Va.). […] OVA was used as control solid antigen.
For experiment [8], the system named is strain of S. aureus that does not express the Col-binding MSCRAMM. The experiment can be described thus: Mouse sepsis control study, challenge with S. aureus not expressing the Col-binding MSCRAMM. It counts as in vivo. As to conditions: immunized mice, challenge strain without Col-binding MSCRAMM. The text has this:
The mortality in the M55 group was 50% compared to 30% in the BSA group.

The subject of experiment [9] is S. aureus strain Phillips. The experiment can be described thus: Mouse sepsis model, active immunization, intravenous challenge with S. aureus expressing CBP. Type of experiment: in vivo, mice. An excerpt: Gram-positive bacteria related sepsis is on the increase. In fact between one-third and one-half of all cases of sepsis are caused by gram-positive bacteria, particularly S. aureus and S. epidermidis. In the United States, it can be estimated that over 200,000 patients will develop gram-positive related sepsis this year. […] Mice were immunized subcutaneously with either M55 or a control antigen (bovine serum albumin) and then challenged intravenously with S. aureus. Eighty-three percent (35/42) of the mice immunized with M55 survived compared to only 27% of the BSA immunized mice (12/45). This is a compilation of 3 separate studies.
Day -31: 100μg/mouse of a CBP Epitope (i.e. M17, M31, or M55) or BSA emulsified with Freund's Complete adjuvant (Difco Laboratories) as a control.
Day -18: 100μg/mouse of a CBP Epitope (ie. M17, M31, or M55) or BSA dissolved in sterile phosphate buffered saline (PBS)
Day -7: 100μg/mouse of a CBP Epitope (i.e. M17, M31, or M55) or BSA dissolved in PBS
Day 0: inoculate intravenously S. aureus strain Phillips (which expresses CBP) (Dose: 2.8×10^7 cfu/mouse)
Day 14: end of study; all surviving mice were euthanized.

Experiment [10] addresses type II Col (collagen type II). The experiment can be described thus: peptide (5 µM) incubated with ^125I-Col before addition of S. aureus cells.
Experiment [11] addresses type II Col (collagen type II). The experiment can be described thus: peptide at 10 µM, inhibition of ^125I-labeled Col binding to S. aureus cells.
The target of experiment [12] is immobilized type II Col (Homo sapiens, UniProt P02458). The experiment in a line: BIAcore analysis of CBD(30-529) and mutants on immobilized type II Col. It counts as binding. The text has this: The importance of amino acid residues Asn^232 and Tyr ^33 in the MSCRAMM for Col binding was examined by creating specific mutants of CBD (30-529) and characterizing the interactions of these mutants with immobilized type II Col using the BlAcore. In the mutations made, the identified amino acid residues were replaced individually, (N^232 →A, Y^233 →A) or as a pair, (N^232 →A:Y^233→A) with alanine, a residue that is not expected to interfere with the existing secondary structure. The corresponding base changes were made using overlap extension PCR™ as described and the sequence changes confirmed experimentally. The recombinant proteins containing the mutations were purified to homogeneity by metal ion chelating chromatography.
Sequence of immobilized type II Col (P02458 182-1241 limits assumed): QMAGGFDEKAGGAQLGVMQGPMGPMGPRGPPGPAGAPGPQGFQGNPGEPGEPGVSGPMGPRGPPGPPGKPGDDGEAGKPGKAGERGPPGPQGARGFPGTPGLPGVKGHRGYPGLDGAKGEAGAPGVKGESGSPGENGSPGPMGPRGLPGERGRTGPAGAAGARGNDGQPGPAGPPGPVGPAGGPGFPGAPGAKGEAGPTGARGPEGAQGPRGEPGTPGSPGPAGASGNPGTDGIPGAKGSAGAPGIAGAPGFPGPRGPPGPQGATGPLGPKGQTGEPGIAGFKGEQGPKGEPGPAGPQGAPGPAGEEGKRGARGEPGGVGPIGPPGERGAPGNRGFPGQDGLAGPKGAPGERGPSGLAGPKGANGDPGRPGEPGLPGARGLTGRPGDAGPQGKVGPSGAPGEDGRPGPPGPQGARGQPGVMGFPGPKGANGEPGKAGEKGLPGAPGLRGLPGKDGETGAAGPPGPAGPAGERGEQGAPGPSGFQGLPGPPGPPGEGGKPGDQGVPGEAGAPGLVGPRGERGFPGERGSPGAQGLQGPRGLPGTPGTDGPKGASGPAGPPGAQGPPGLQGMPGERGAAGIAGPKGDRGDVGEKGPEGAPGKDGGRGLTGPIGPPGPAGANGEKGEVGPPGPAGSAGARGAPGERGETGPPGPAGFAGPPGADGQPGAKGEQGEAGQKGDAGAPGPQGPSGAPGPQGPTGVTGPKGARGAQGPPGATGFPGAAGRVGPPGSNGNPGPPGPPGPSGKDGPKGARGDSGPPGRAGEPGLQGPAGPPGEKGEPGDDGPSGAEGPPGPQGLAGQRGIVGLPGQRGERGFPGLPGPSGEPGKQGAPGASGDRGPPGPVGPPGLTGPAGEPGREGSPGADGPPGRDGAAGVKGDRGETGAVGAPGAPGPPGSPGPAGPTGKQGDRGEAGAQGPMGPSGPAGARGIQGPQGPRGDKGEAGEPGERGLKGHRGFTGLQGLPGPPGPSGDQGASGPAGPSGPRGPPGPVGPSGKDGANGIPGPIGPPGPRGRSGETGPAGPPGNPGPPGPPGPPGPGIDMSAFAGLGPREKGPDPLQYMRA
True equilibrium was not obtained during the injection time period due to the slow dissociation rate (koff). […] The dissociation phase gives information about the koff, and this rate is independent of the number of binding sites, analyte concentration, and flow rate. […] The association phase contains the information to determine the association rate koff the interaction, but it is also influenced by the dissociation rate, the number of binding sites for each interaction, and the concentration of the analyte. Because of the complexity of this interaction and the absence of measurable equilibrium data, it was not possible to determine the binding constant (KD), apparent binding ratio (BRapp), and kon.

[13] abbreviates: subcutaneous immunization, intravenous challenge, compilation of 3 separate studies.

Changes are numbered by the printed parent chain. Values joined by “and” are separate entries in the source; they are usually repeats but may differ in a detail not shown here. Equal values may be shown once.

Sequence of type II Col (collagen type II) (P02459 182-1241): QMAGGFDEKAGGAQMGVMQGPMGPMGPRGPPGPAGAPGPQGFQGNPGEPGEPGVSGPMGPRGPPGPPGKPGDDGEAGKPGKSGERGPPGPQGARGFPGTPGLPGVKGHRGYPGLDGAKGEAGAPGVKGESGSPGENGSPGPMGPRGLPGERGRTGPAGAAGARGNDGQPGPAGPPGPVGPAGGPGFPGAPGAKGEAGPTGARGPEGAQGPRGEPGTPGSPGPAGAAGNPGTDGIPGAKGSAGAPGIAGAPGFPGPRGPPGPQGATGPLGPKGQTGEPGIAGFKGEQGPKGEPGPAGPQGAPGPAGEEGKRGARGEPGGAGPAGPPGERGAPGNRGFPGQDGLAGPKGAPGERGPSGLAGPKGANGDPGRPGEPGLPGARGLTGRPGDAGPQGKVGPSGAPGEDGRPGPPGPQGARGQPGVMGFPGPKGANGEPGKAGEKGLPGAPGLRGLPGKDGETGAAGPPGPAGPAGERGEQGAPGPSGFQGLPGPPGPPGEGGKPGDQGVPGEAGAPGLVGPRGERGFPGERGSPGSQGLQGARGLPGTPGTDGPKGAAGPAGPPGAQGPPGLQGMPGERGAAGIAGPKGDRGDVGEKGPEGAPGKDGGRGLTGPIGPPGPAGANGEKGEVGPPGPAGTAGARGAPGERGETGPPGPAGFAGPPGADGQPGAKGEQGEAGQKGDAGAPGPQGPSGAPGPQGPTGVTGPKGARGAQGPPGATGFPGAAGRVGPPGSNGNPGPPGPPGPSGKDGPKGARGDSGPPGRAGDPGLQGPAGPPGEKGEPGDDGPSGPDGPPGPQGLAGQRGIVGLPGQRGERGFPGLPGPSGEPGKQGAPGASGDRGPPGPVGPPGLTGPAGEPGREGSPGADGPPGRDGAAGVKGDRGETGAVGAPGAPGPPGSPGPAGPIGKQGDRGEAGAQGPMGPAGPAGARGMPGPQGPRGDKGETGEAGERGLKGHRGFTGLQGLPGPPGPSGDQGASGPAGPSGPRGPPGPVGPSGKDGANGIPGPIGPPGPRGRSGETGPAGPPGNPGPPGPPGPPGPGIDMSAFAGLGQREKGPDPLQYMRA

With “CBD4: 25-amino-acid synthetic peptide, amino acids 209-233 (Asp209 to Tyr233) of S. aureus CBP (DQIQGGQQLDLSTLNINVTGTHSNY)”, the “inhibition of 125I-Col binding to S. aureus” value in experiment [1] (Five μM peptide incubated with 125I-Col before S. aureus) was “over 50%”. The “direct inhibition of 125I-Col binding to S. aureus” value in experiment [1] (increasing amounts of peptide preincubated with 125I-Col) is recorded as “inhibited in a dose-dependent manner”. The “inhibition of binding of 125I-labeled Col to S. aureus” value in experiment [1] (peptide 10 μM) is given as 76%. In addition, the “reactivity with purified αCBD(151-297) IgG in ELISA” value in experiment [2] is listed as “weakly”. Further, in experiment [3] (100 μg peptide, IgG 12 μg/ml), the “effect of peptide on Col binding to S. aureus in presence of αCBD(151-297) IgG” value is recorded as “restored the level of Col binding to S. aureus observed in absence of αCBD(151-297) IgG”. In experiment [3] (IgG 12 μg preincubated with single dose 100 μg peptide), the “neutralization of αCBD(151-297) IgG inhibitory activity” value was found to be 68%.

Turning to “CBD (30-529) N^232→A:Y^233→A (from UniProt Q53654 30-529)”, in experiment [4], the BRapp (apparent binding ratio) is 2 sites and 3 sites.

One may read the koff as the first-order rate constant of dissociation. Low readings indicate a long-lived complex, high ones a short-lived complex. In the case of “CBD (30-529), recombinant S. aureus Col MSCRAMM fragment (wild type) (from UniProt Q53654 30-529)”, the koff in experiment [5] is more than 0.01 s⁻¹; in experiment [6], 0.0005 s⁻¹.

As a reminder, the mortality is the percentage killed. Take “M55: recombinant His-tagged S. aureus Col-binding MSCRAMM derivative, amino acids 30-531 of full length CBP (SEQ ID NO:6)”: the “anti-M55 IgG (Col MSCRAMM) titers” value in experiment [7] was 32×10^9 units/ml. In experiment [8], this molecule yielded a mortality of 50%. For the same molecule, the mice died/total in experiment [9] (100μg/mouse on days -31, -18, -7, 2.8×10^7 cfu/mouse i.v. day 0, end day 14) is given as 4/11. Moreover, the protection against sepsis entry in experiment [9] (in words) was “highly effective in protecting against sepsis”. In experiment [9] (setting [13]), the “percent of mice surviving” value was “Eighty-three” and the surviving mice/total mice is 35/42.

Molecule “Peptide CBD4 (from UniProt Q53654 209-233)” came in with a percent inhibition of ^125I-Col binding to S. aureus in experiment [10] of more than 50%. For the same molecule, in experiment [11], the percent inhibition of ^125I-labeled Col binding to S. aureus turned out to be 76%.

B1: Y^233→A (protein)
chain: ARDISSTNVTDLTVSPSKIEDGGKTTVKMTFDDKNGKIQNGDMIKVAWPTSGTVKIEGYSKTVPLTVKGEQVGQAVITPDGATITFNDKVEKLSDVSGFAEFEVQGRNLTQTNTSDDKVATITSGNKSTNVTVHKSEAGTSSVFYYKTGDMLPEDTTHVRWFLNINNEKSYVSKDITIKDQIQGGQQLDLSTLNINVTGTHSNAYSGQSAITDFEKAFPGSKITVDNTKNTIDVTIPQGYGSYNSFSINYKTKITNEQQKEFVNNSQAWYQEHGKEEVNGKSFNHTVHNINANAGIEGTVKGELKVLKQDKDTKAPIANVKFKLSKKDGSVVKDNQKEIEIITDANGIANIKALPSGDYILKEIEAPRPYTFDKDKEYPFTMKDTDNQGYFTTIENAKAIEKTKDVSAQKVWEGTQKVKPTIYFKLYKQDDNQNTTPVDKAEIKKLEDGTTKVTWSNLPENDKNGKAIKYLVKEVNAQGEDTTPEGYTKKENGLVVTNTE
As for B1, the “affinity and apparent binding ratio compared to wild type” value in experiment [12] is “even more significant decreasesin affinity and apparent binding ratio”.

B2: double mutant (protein)
chain: B1 chain with N203A
For the molecule B2, in experiment [12], the “affinity and apparent binding ratio compared to wild type” value is “even more significant decreasesin affinity and apparent binding ratio”. In experiment [12] (Scatchard analysis or Equation 1), the “apparent binding ratio (BRapp)” value is “approximately two to three high affinity sites”.
